From ChEMBL document CHEMBL1201861, “Genomics of Drug Sensitity in Cancer screening data, Wellcome Trust Sanger Institute”

Assays:
Assay in all cases: cells
Format in all cases: functional, cell-based, Homo sapiens
SW1417 = details: Homo sapiens, SW1417;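 also: growth inhibition of human SW1417 cells, read out with a cell viability assay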
Description: SANGER: Inhibition of human SW1417 cell growth in a cell viability assay.

EFO-21 = details: Homo sapiens, EFO-21;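 also: growth inhibition of EFO-21 cells measured with a viability assay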
Description: SANGER: Inhibition of human EFO-21 cell growth in a cell viability assay.

VMRC-RCZ = details: Homo sapiens, VMRC-RCZ;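 also: growth inhibition measured with a cell viability assay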
Description: SANGER: Inhibition of human VMRC-RCZ cell growth in a cell viability assay.

M14 = details: Homo sapiens, M14;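 also: growth inhibition of M14 cells, read out with a cell viability assay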
Description: SANGER: Inhibition of human M14 cell growth in a cell viability assay.

SBC-5 = details: Homo sapiens, SBC-5;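 also: cell viability assay read-out, IC50 is the concentration that inhibits growth of the cells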
Description: SANGER: Inhibition of human SBC-5 cell growth in a cell viability assay.

OE19 = details: Homo sapiens, OE19;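 also: growth inhibition of OE19 cells, measured through a cell viability read-out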
Description: SANGER: Inhibition of human OE19 cell growth in a cell viability assay.

OVCAR-3 = details: Homo sapiens, OVCAR-3;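 also: growth inhibition of human OVCAR-3 cells, determined by a cell viability assay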
Description: SANGER: Inhibition of human OVCAR-3 cell growth in a cell viability assay.

KYSE-70 cell line = details: Homo sapiens, KYSE-70;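 also: cell viability assay read-out, with IC50 expressing suppression of KYSE-70 cell growth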
Description: SANGER: Inhibition of human KYSE-70 cell growth in a cell viability assay.

PC-14 = details: Homo sapiens, PC-14;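 also: cell viability assay measuring inhibition of PC-14 cell growth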
Description: SANGER: Inhibition of human PC-14 cell growth in a cell viability assay.

NCI-H520 = details: Homo sapiens, NCI-H520;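 also: growth inhibition of NCI-H520 cells, measured by a cell viability assay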
Description: SANGER: Inhibition of human NCI-H520 cell growth in a cell viability assay.

CAL-51 = details: Homo sapiens, CAL-51;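 also: human CAL-51 cell line, growth inhibition read out via a cell viability assay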
Description: SANGER: Inhibition of human CAL-51 cell growth in a cell viability assay.

RPMI-2650 = details: Homo sapiens, RPMI-2650
Description: SANGER: Inhibition of human RPMI-2650 cell growth in a cell viability assay.

YH-13 = details: Homo sapiens, YH-13;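 also: cell viability readout of growth suppression in the human YH-13 cell line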
Description: SANGER: Inhibition of human YH-13 cell growth in a cell viability assay.

MKN-1 = details: Homo sapiens, MKN-1;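 also: growth inhibition of human MKN1 cells, read out by a cell viability measurement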
Description: SANGER: Inhibition of human MKN1 cell growth in a cell viability assay.

C32 = details: Homo sapiens, C32;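 also: cell viability assay, with IC50 reflecting inhibition of C32 cell growth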
Description: SANGER: Inhibition of human C32 cell growth in a cell viability assay.

ChaGo-K-1 = details: Homo sapiens, ChaGo-K-1;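 also: growth inhibition of ChaGo-K-1 cells, read out with a cell viability assay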
Description: SANGER: Inhibition of human ChaGo-K-1 cell growth in a cell viability assay.

MDA-MB-175-VII = details: Homo sapiens, MDA-MB-175-VII
CWR22R = details: Homo sapiens, 22Rv1;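 also: growth inhibition of 22Rv1 cells, read out with a cell viability assay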
Description: SANGER: Inhibition of human 22RV1 cell growth in a cell viability assay.

NCI-H630 = details: Homo sapiens, NCI-H630;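 also: growth inhibition of NCI-H630 cells, read out with a cell viability assay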
Description: SANGER: Inhibition of human NCI-H630 cell growth in a cell viability assay.

CAL-72 = details: Homo sapiens, CAL-72;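 also: cell viability assay measuring inhibition of proliferation in the CAL-72 cell line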
Description: SANGER: Inhibition of human CAL-72 cell growth in a cell viability assay.

Calu-3 = details: Homo sapiens, Calu-3;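 also: growth inhibition of human Calu-3 cells, determined with a cell viability assay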
Description: SANGER: Inhibition of human Calu-3 cell growth in a cell viability assay.

D-566MG = details: Homo sapiens, D-566MG
COLO-679 = details: Homo sapiens, COLO-679
Description: SANGER: Inhibition of human COLO-679 cell growth in a cell viability assay.

HCC1569 = details: Homo sapiens, HCC1569;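 also: growth inhibition of human HCC1569 cells, read out with a cell viability assay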
Description: SANGER: Inhibition of human HCC1569 cell growth in a cell viability assay.

MIA PaCa-2 = details: Homo sapiens, MIA PaCa-2;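 also: growth inhibition of MIA PaCa-2 cells, read out with a cell viability assay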
Description: SANGER: Inhibition of human MIA-PaCa-2 cell growth in a cell viability assay.

Panc1005 = details: Homo sapiens, Panc1005;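 also: growth inhibition of human PANC-10-05 cells, measured by a cell viability assay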
Description: SANGER: Inhibition of human PANC-10-05 cell growth in a cell viability assay.

C3A = details: Homo sapiens, C3A;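 also: growth inhibition of C3A human cells, quantified with a cell viability readout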
Description: SANGER: Inhibition of human C3A cell growth in a cell viability assay.

ME-180 = details: Homo sapiens, ME-180;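 also: cell viability assay measuring growth inhibition of ME-180 cells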
Description: SANGER: Inhibition of human ME-180 cell growth in a cell viability assay.

NCI-H1437 = details: Homo sapiens, NCI-H1437;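 also: growth inhibition of human NCI-H1437 cells, read out by a cell viability assay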
Description: SANGER: Inhibition of human NCI-H1437 cell growth in a cell viability assay.

HCT-116 = details: Homo sapiens, HCT-116
Description: SANGER: Inhibition of human HCT-116 cell growth in a cell viability assay.

DMS-273 = details: Homo sapiens, DMS-273
Description: SANGER: Inhibition of human DMS-273 cell growth in a cell viability assay.

DBTRG-05MG = details: Homo sapiens, DBTRG-05MG;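 also: cell viability assay measuring growth inhibition of human DBTRG-05MG cells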
Description: SANGER: Inhibition of human DBTRG-05MG cell growth in a cell viability assay.

DK-MG = details: Homo sapiens, DK-MG;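 also: growth inhibition of DK-MG cells, read out with a cell viability assay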
Description: SANGER: Inhibition of human DK-MG cell growth in a cell viability assay.

CFPAC-1 = details: Homo sapiens, CFPAC-1;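 also: cell viability readout used to gauge suppression of CFPAC-1 cell proliferation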
Description: SANGER: Inhibition of human CFPAC-1 cell growth in a cell viability assay.

NCI-H2291 = details: Homo sapiens, NCI-H2291
Description: SANGER: Inhibition of human NCI-H2291 cell growth in a cell viability assay.

NCI-H28 = details: Homo sapiens, NCI-H28;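 also: growth inhibition of human NCI-H28 cells, read out as cell viability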
Description: SANGER: Inhibition of human NCI-H28 cell growth in a cell viability assay.

BHY = details: Homo sapiens, BHY;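 also: cell growth inhibition read out by a viability assay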
Description: SANGER: Inhibition of human BHY cell growth in a cell viability assay.

COLO-680N = details: Homo sapiens, COLO-680N;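 also: cell viability assay used to measure inhibition of COLO-680N cell growth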
Description: SANGER: Inhibition of human COLO-680N cell growth in a cell viability assay.

Structure (SMILES) | IC50 (SW1417) [nM] | IC50 (EFO-21) [nM] | IC50 (VMRC-RCZ) [nM] | IC50 (M14) [nM] | IC50 (SBC-5) [nM] | IC50 (OE19) [nM] | IC50 (OVCAR-3) [nM] | IC50 (KYSE-70 cell line) [nM] | IC50 (PC-14) [nM] | IC50 (NCI-H520) [nM] | IC50 (CAL-51) [nM] | IC50 (RPMI-2650) [nM] | IC50 (YH-13) [nM] | IC50 (MKN-1) [nM] | IC50 (C32) [nM] | IC50 (ChaGo-K-1) [nM] | IC50 (MDA-MB-175-VII) [nM] | IC50 (CWR22R) [nM] | IC50 (NCI-H630) [nM] | IC50 (CAL-72) [nM] | other results
CO[C@H]1C[C@@H]2CC[C@@H](C)[C@@](O)(O2)C(=O)C(=O)N2CCCC[C@H]2C(=O)O[C@H]([C@H](C)C[C@@H]2CC[C@@H](OC(=O)C(C)(CO)CO)[C@H](OC)C2)CC(=O)[C@H](C)/C=C(\C)[C@@H](O)[C@@H](OC)C(=O)[C@H](C)C[C@H](C)/C=C/C=C/C=C/1C [TEMSIROLIMUS] | > 200 | > 200 | > 200 | > 200 | 103 | > 200 | > 200 | > 200 | > 200 | > 200 | > 200 | 117 | 41.1 | > 200 | 46.6 | > 200 | > 200 | > 200 | > 200 | > 200 | IC50 (Calu-3): > 200 nM; IC50 (D-566MG): 7.16 nM; IC50 (COLO-679): > 200 nM; IC50 (HCC1569): > 200 nM; IC50 (MIA PaCa-2): > 200 nM; IC50 (Panc1005): 155 nM; IC50 (C3A): > 200 nM; IC50 (ME-180): 109 nM; IC50 (NCI-H1437): 103 nM; IC50 (HCT-116): > 200 nM; IC50 (DMS-273): > 200 nM; IC50 (DBTRG-05MG): > 200 nM; IC50 (DK-MG): > 200 nM; IC50 (CFPAC-1): > 200 nM; IC50 (NCI-H2291): > 200 nM; IC50 (NCI-H28): > 200 nM; IC50 (BHY): > 200 nM; IC50 (COLO-680N): > 200 nM
CC1(C)CNc2cc(NC(=O)c3cccnc3NCc3ccncc3)ccc21 [MOTESANIB] | > 2000 | > 2000 | > 2000 | > 2000 | > 2000 | > 2000 | > 2000 | > 2000 | > 2000 | > 2000 | > 2000 | > 2000 | > 2000 | > 2000 | > 2000 | > 2000 | > 2000 | > 2000 | > 2000 | > 2000 | IC50 (Calu-3): > 2000 nM; IC50 (D-566MG): > 2000 nM; IC50 (COLO-679): > 2000 nM; IC50 (HCC1569): > 2000 nM; IC50 (MIA PaCa-2): > 2000 nM; IC50 (Panc1005): > 2000 nM; IC50 (C3A): > 2000 nM; IC50 (ME-180): > 2000 nM; IC50 (NCI-H1437): > 2000 nM; IC50 (HCT-116): > 2000 nM; IC50 (DMS-273): > 2000 nM; IC50 (DBTRG-05MG): > 2000 nM; IC50 (DK-MG): > 2000 nM; IC50 (CFPAC-1): > 2000 nM; IC50 (NCI-H2291): > 2000 nM; IC50 (NCI-H28): > 2000 nM; IC50 (BHY): > 2000 nM; IC50 (COLO-680N): > 2000 nM
Nc1cccc2c1CN(C1CCC(=O)NC1=O)C2=O (centres undefined) [LENALIDOMIDE] | > 5000 | > 5000 | > 5000 | > 5000 | > 5000 | > 5000 | > 5000 | > 5000 | > 5000 | > 5000 | > 5000 | > 5000 | > 5000 | > 5000 | > 5000 | > 5000 | > 5000 | > 5000 | > 5000 | > 5000 | IC50 (Calu-3): > 5000 nM; IC50 (D-566MG): > 5000 nM; IC50 (COLO-679): > 5000 nM; IC50 (HCC1569): > 5000 nM; IC50 (MIA PaCa-2): > 5000 nM; IC50 (Panc1005): > 5000 nM; IC50 (C3A): > 5000 nM; IC50 (ME-180): > 5000 nM; IC50 (NCI-H1437): > 5000 nM; IC50 (HCT-116): > 5000 nM; IC50 (DMS-273): > 5000 nM; IC50 (DBTRG-05MG): > 5000 nM; IC50 (DK-MG): > 5000 nM; IC50 (CFPAC-1): > 5000 nM; IC50 (NCI-H2291): > 5000 nM; IC50 (NCI-H28): > 5000 nM; IC50 (BHY): > 5000 nM; IC50 (COLO-680N): > 5000 nM
